Measured values from US20230026696A1, “TRPV4 RECEPTOR LIGANDS” (UNIVERSITY OF UTAH RESEARCH FOUNDATION, priority 2019, published 2023).

How the values were obtained:
[1] = test system: intraocular pressure (IOP); assay: In vivo tonometric IOP assay in microbead mouse model of ocular hypertension; details: for IOP after single topical application: 1 μM and 10 μM, comparable to 0.5% timolol; for IOP after topical administration / protection of RGCs: mouse model of ocular hypertension, compounds 1 μM and 10 μM, timolol 0.5%; for IOP after topical administration: FIG. 1; for protection of RGCs: topical
[2] = target: T1, TRPM8 (Homo sapiens, UniProt Q7Z2W7); assay: Selectivity Ca2+ flux assay, TRPM8 stably over-expressed in HEK-293 cells; format: cell-based; details: agonist icilin (50 μM)
T1 construct: expressed in transfected cells
T1 sequence (Q7Z2W7 whole entry): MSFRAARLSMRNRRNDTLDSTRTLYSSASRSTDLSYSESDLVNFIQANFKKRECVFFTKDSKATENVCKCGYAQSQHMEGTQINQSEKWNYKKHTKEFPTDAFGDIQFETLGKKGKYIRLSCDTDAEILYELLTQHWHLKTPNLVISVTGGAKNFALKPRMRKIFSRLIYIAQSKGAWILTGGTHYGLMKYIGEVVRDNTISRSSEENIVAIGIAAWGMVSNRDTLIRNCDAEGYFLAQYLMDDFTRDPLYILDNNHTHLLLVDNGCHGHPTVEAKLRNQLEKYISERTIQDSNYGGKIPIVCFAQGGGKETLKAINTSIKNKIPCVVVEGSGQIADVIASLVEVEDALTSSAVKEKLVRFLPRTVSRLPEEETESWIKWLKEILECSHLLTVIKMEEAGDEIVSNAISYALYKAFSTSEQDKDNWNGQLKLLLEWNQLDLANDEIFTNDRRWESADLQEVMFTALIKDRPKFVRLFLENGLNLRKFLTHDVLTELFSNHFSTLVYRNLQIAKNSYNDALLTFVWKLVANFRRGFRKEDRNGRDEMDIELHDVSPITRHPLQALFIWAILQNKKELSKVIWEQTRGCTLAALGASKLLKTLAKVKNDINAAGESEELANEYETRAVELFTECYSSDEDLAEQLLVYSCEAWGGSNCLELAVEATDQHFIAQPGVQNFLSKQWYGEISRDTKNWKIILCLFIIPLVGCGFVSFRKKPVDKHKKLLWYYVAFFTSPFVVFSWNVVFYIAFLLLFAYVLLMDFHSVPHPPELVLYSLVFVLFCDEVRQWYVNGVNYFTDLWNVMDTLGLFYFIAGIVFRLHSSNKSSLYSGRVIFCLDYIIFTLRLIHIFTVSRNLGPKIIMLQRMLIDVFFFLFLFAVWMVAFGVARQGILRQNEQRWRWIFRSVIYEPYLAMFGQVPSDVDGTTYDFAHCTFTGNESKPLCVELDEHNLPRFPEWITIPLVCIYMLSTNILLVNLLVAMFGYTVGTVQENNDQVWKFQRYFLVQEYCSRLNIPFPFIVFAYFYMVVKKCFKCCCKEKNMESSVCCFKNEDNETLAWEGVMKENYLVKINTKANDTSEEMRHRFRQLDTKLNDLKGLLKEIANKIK
Method: (§1) To determine selectivity of the various test compounds for TRPV4, select compounds with activity in the TRPV4 fluorometric cell-based Ca^2+ flux assays were also tested for inhibition of human TRPA1 stably over-expressed in HEK-293 cells, TRPM8 stably over-expressed in HEK-293 cells, TRPV3 stably over-expressed in HEK-293 cells, and TRPV1 stably overexpressed in human lung epithelial (BEAS-2B) cells. The assays were conducted substantially as described above for HEK-293 cells that stably overexpress TRPV4, although for TRPV1, the BEAS-2B cells were maintained in LHC-9 media containing Geneticin (300 μg/mL) and were loaded with Fluo-4AM at room temperature. The agonist for TRPA1 was 2,4-ditert butylphenol (50 μM), for TRPM8 was icilin (50 μM), for TRPV3 was carvacrol (300 μM), and for TRPV1 was nonivamide (5 μM). All other aspects of the assay described above were the same.

[3] = target: T2, TRPV3 (Homo sapiens, UniProt Q8NET8); assay: Selectivity Ca2+ flux assay, TRPV3 stably over-expressed in HEK-293 cells; format: cell-based; details: agonist carvacrol (300 μM)
T2 construct: expressed in transfected cells
T2 sequence (Q8NET8 1-790): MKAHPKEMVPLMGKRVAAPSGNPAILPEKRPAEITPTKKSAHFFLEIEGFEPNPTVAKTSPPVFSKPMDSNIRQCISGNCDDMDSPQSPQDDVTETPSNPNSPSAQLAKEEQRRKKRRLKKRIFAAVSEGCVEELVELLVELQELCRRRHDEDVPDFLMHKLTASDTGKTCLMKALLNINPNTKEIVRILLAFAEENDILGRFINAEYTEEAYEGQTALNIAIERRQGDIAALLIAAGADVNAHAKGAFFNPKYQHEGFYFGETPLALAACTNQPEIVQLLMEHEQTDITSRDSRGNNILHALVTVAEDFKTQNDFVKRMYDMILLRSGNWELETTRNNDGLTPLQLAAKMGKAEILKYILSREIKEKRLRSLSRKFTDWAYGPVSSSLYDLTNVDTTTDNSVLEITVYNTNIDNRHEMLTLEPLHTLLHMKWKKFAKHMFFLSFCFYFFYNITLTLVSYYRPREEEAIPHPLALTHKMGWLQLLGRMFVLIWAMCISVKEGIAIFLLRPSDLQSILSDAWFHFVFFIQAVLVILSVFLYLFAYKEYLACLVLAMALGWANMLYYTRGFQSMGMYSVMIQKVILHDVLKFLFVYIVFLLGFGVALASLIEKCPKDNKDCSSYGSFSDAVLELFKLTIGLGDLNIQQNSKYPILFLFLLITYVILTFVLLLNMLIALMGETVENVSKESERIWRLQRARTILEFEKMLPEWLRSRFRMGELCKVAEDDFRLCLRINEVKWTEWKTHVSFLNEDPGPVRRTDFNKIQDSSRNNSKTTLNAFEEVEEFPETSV
Method: as §1

[4] = test system: intraocular pressure (IOP); assay: In vivo IOP assay in dog model of ocular hypertension (ADAMTS10 Beagles)
Method: Homozygous Beagels with autosomal recessive missense mutation in the ADAMTS10 gene develop significant IOP elevations due to decreased outflow facility for aqueous humor, resulting in open angle glaucoma that manifests as optic nerve head cupping and optic neuropathy.
8 drops of Compound 52 (200 mM in hydroxypropyl methylcellulose solution, stock dissolved in DMSO) were administered to the Beagels at 7 AM for 1.5 hours. Control eyes received the vehicle (hydroxypropyl methylcellulose eyedrop with proper dilution of DMSO). IOP was measured by tonometry at 9:00 AM (6 readings per event, averaged) in dogs under topical anesthesia (N=5 OAG, N=5 non-symptomatic dogs). General ophthalmic examinations were performed by slit lamp biomicroscopy (Kowa SL-17 Portable Slit Lamp; Kowa Company, Ltd.) and indirect ophthalmoscopy (Keeler All Pupil II headset; Keeler Instruments; Pan Retinal 2.2D condensing lens; Volk Optical) to detect potential treatment-related adverse effects.

[5] = target: T3, human TRPA1 (Homo sapiens, UniProt O75762); assay: Selectivity Ca2+ flux assay, TRPA1 stably over-expressed in HEK-293 cells; format: cell-based; details: agonist 2,4-ditert butylphenol (50 μM)
T3 construct: expressed in transfected cells
T3 sequence (O75762 whole entry): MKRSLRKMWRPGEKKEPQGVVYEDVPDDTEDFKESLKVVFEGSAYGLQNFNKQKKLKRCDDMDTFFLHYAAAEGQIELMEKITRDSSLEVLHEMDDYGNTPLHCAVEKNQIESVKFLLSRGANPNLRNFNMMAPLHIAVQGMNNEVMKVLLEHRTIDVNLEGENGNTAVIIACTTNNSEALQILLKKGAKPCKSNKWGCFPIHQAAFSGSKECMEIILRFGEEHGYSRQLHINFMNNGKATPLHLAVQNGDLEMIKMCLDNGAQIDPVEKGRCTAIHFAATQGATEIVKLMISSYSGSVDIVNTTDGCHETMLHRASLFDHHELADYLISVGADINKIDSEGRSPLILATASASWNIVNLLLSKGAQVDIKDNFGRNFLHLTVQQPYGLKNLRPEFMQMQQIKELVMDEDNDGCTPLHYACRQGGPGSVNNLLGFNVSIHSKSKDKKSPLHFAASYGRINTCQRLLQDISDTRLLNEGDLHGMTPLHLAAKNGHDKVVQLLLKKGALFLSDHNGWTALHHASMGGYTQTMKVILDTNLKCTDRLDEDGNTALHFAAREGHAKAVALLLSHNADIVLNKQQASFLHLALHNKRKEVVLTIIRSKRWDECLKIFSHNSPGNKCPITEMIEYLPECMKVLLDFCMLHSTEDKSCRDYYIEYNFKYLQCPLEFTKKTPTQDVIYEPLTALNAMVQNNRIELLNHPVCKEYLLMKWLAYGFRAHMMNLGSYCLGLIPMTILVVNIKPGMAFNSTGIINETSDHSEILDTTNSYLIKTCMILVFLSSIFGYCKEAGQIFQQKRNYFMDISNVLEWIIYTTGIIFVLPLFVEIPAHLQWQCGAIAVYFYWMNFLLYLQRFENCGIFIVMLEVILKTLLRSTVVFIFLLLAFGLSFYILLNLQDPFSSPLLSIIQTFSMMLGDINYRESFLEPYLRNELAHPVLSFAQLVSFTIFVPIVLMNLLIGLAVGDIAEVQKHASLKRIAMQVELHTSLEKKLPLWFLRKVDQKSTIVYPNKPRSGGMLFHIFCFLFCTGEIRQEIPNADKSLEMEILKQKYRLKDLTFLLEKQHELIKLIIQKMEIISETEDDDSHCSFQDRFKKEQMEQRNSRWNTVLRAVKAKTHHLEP
Method: as §1

| Compound | IOP after single topical application [1] | IOP after topical administration [1] | protection of RGCs [1] | IC50 [2] [µM] | IC50 [3] [µM] | average IOP after topical application ([4]; ocular hypertensive dogs, mean baseline IOP 45.5 mm Hg, 8 drops, 200 mM in hydroxypropyl methylcellulose) [mm Hg] | tolerability in dogs ([4]; topical, N=10) | signs of ocular discomfort or conjunctival hyperemia ([4]; topical, N=10, slit lamp and ophthalmoscopy) | IC50 [5] [µM] |
| --- | --- | --- | --- | --- | --- | --- | --- | --- | --- |
| Cl.N#Cc1ccc(OCC2(N)CN(S(=O)(=O)c3ccc(Cl)cc3Cl)C2)cc1F [Compound 52, 4-((3-Amino-1-((2,4-dichlorophenyl)sulfonyl)azetidin-3-yl)methoxy)-2-fluorobenzonitrile hydrochloride salt] | effectively lower IOP | lowered the IOP | protected RGCs | 35.9 | > 100 | 36.6 | well-tolerated | no observable signs of ocular discomfort or conjunctival hyperemia | 89.6 |
| N#Cc1ccc(OCC2(CO)CN(S(=O)(=O)c3ccc(Cl)cc3Cl)C2)cc1F [Compound 11, 4-((1-((2,4-Dichlorophenyl)sulfonyl)-3-(hydroxymethyl)azetidin-3-yl)methoxy)-2-fluorobenzonitrile] | effectively lower IOP | lowered the IOP | protected RGCs | 14.4 | > 100 | – | – | – | 52 |
